Some test systems named below: OVCAR-8 ovarian; SF-295 CNS; SK-OV-3 ovarian; MCF7 breast; SNB-75 CNS; MOLT-4 leukemia; SK-MEL-28 melanoma; PC-3 prostate.
Common to all, as to assay: growth of human tumour cells (NCI), 48 h

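Growth conditions: 96-well plates. Treatment: test compound, 48 hours, 5 concentrations. Analysis: linear interpolation between bracketing concentrations; unreached endpoints set to highest concentration. GI50 = concentration required for 50% inhibition of growth. TGI is the concentration that stops growth completely.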 Where only a bound is given, the exact number is not on record here.

Here are results for 18 molecules from PubChem BioAssay (NCI).

For the molecule `C=CC[C@@H]1C=C[C@@H](C(=O)OC)n2c(=O)n(-c3ccccc3)c(=O)n21`, the TGI in the assay on OVCAR-8 ovarian, with SF-295 CNS, in the assay with SK-OV-3 ovarian, in the assay with MCF7 breast, with SNB-75 CNS and in the assay on MOLT-4 leukemia was > 100 µM in each case. Moreover, in the assay with SK-MEL-28 melanoma, the TGI was > 100 µM.
For `O=c1oc2c/c(=C\c3ccccc3)c(=O)c3cccc1c3-2`, the TGI in the assay on OVCAR-8 ovarian is 43.1 µM; in the assay with SF-295 CNS, > 100 µM; with PC-3 prostate, > 100 µM; in the assay on SK-OV-3 ovarian it was > 100 µM; in the assay on SNB-75 CNS, > 100 µM; in the assay on SK-MEL-28 melanoma it was > 100 µM.
As to `Cn1c(N=[N+]=[N-])cc(=O)n(C)c1=O`, the TGI in the assay on OVCAR-8 ovarian, in the assay on SF-295 CNS, with PC-3 prostate, in the assay with SK-OV-3 ovarian and in the assay on MOLT-4 leukemia was > 100 µM in each case.
On to `CCOC(=O)C1C[C@H]2CO[C@H](c3ccccc3)N2C1=O` (some centres not stated), for which the TGI with OVCAR-8 ovarian, with SF-295 CNS, with PC-3 prostate, in the assay on MCF7 breast, with SNB-75 CNS and in the assay on MOLT-4 leukemia was > 100 µM throughout. In addition, the TGI in the assay on SK-MEL-28 melanoma is > 100 µM.
On to `O=S(=O)(O)c1cc(Nc2ccnc3ccccc23)c2c(S(=O)(=O)O)cc(S(=O)(=O)O)cc2c1`, for which the TGI with OVCAR-8 ovarian, in the assay with PC-3 prostate, in the assay on SK-OV-3 ovarian, in the assay with MCF7 breast, in the assay on SNB-75 CNS and in the assay on MOLT-4 leukemia was > 100 µM in each case. The TGI in the assay with SK-MEL-28 melanoma was > 100 µM.
Turning to `C=CCCC(On1c(-c2ccc(Cl)cc2)csc1=S)c1ccccc1` (configuration not stated), the TGI in the assay on OVCAR-8 ovarian, in the assay with SF-295 CNS, in the assay with PC-3 prostate, with MCF7 breast, in the assay on MOLT-4 leukemia and with SK-MEL-28 melanoma was > 100 µM each time.
For `N#CCOc1cccc(C2(N3CC=CCC3)CCCCC2)c1`, the TGI with OVCAR-8 ovarian, in the assay with SF-295 CNS, with PC-3 prostate, in the assay with SK-OV-3 ovarian, in the assay with MCF7 breast and in the assay with MOLT-4 leukemia was > 100 µM each time. Moreover, the TGI in the assay with SK-MEL-28 melanoma was > 100 µM.
For the molecule `CN(C)CCNC(=O)c1cccc2[nH]c(-c3ccncc3)nc12`, the TGI is > 40.2 µM in the assay on OVCAR-8 ovarian; 7.97 µM in the assay on SF-295 CNS; > 24.3 µM in the assay on PC-3 prostate; > 30.8 µM with MCF7 breast; 26.5 µM with SNB-75 CNS; > 100 µM in the assay on MOLT-4 leukemia. In addition, the TGI in the assay with SK-MEL-28 melanoma is 3.93 µM.
Turning to `CCOC(=O)c1nc2cc(C(F)(F)F)ccc2nc1Nc1ccc(F)cc1`, the TGI with OVCAR-8 ovarian, in the assay with SF-295 CNS, with PC-3 prostate, in the assay with SK-OV-3 ovarian, with MCF7 breast and in the assay on SNB-75 CNS was > 100 µM each time. Also, the TGI in the assay on SK-MEL-28 melanoma is > 100 µM.
Turning to `COc1ccc2c(c1)CC1(O)COc3cc(OC)ccc3C1O2` (configuration not stated), the TGI in the assay with OVCAR-8 ovarian, with SF-295 CNS, in the assay on PC-3 prostate, with SK-OV-3 ovarian, with MCF7 breast and in the assay with MOLT-4 leukemia was > 100 µM each time.
With `COC(=O)c1c(O)ccc2c1c1c(n2Cc2ccccc2OC)C(=O)c2ccccc2C1`, the TGI in the assay with OVCAR-8 ovarian is > 100 µM; with PC-3 prostate, 78.8 µM; in the assay on SK-OV-3 ovarian, > 100 µM; in the assay on MCF7 breast, > 100 µM; in the assay with SNB-75 CNS it was > 100 µM; in the assay with MOLT-4 leukemia, > 100 µM. Also, in the assay on SK-MEL-28 melanoma, the TGI was > 100 µM.
In the case of `CC1(C)OCC(COC(=O)NCn2cc(-c3ccccc3)nn2)O1` (configuration not stated), the TGI in the assay with OVCAR-8 ovarian, in the assay with SF-295 CNS, with PC-3 prostate, with MCF7 breast, in the assay with SNB-75 CNS and in the assay on MOLT-4 leukemia was > 100 µM in each case. Also, the TGI in the assay with SK-MEL-28 melanoma is > 100 µM.
`CC1=Nc2c(C#N)ncn2N=C(C)C1`: the TGI with SF-295 CNS, in the assay on PC-3 prostate, in the assay with SK-OV-3 ovarian, with MCF7 breast, in the assay on SNB-75 CNS and in the assay on MOLT-4 leukemia was > 100 µM in each case. The TGI in the assay with SK-MEL-28 melanoma is > 100 µM.
Take `Cn1cc(-c2nc(-c3c[nH]c4ccncc34)cs2)c2cc(F)ccc21`: the GI50 was 2.11 µM with OVCAR-8 ovarian; 1.64 µM in the assay with SF-295 CNS; 1.63 µM in the assay on PC-3 prostate; 1.92 µM in the assay on SK-OV-3 ovarian; 1.23 µM with MCF7 breast; 1.26 µM in the assay on SNB-75 CNS. Also, the GI50 in the assay on SK-MEL-28 melanoma is 1.63 µM. Besides, the TGI with OVCAR-8 ovarian worked out at 4.79 µM; in the assay on SF-295 CNS it was 3.02 µM; in the assay on PC-3 prostate, 3.17 µM; in the assay on SK-OV-3 ovarian, 3.37 µM; in the assay on MCF7 breast, 2.88 µM; in the assay on SNB-75 CNS it was 2.6 µM. In the assay with SK-MEL-28 melanoma, this molecule returned a TGI of 3.04 µM.
For `c1ccc(CCN2CCN=C2Cc2ccccc2)cc1`, the TGI in the assay on OVCAR-8 ovarian, in the assay with SF-295 CNS, in the assay on SK-OV-3 ovarian, in the assay on MCF7 breast, in the assay on SNB-75 CNS and in the assay on SK-MEL-28 melanoma was > 100 µM in each case.
Take `Cc1c(O)c(=O)ccn1CCc1c[nH]c2ccccc12`: the TGI in the assay with OVCAR-8 ovarian was 73.6 µM; with SF-295 CNS, > 100 µM; with PC-3 prostate, > 100 µM; in the assay on SK-OV-3 ovarian it was > 100 µM; in the assay with MCF7 breast, 33.2 µM; in the assay with MOLT-4 leukemia it was > 100 µM.
Take `COc1cc([C@@H]2c3cc4c(cc3[C@@H](N=Cc3ccc(C(=O)O[C@@H](C(=O)O[C@H]5C[C@@]6(O)[C@@H](OC(=O)c7ccccc7)[C@@H]7[C@]8(OC(C)=O)CO[C@@H]8C[C@H](O)[C@@]7(C)C(=O)[C@H](OC(C)=O)C(=C5C)C6(C)C)[C@@H](NC(=O)c5ccccc5)c5ccccc5)cc3)[C@H]3COC(=O)[C@H]23)OCO4)cc(OC)c1O`: the TGI was > 50 µM with OVCAR-8 ovarian; 24.8 µM with SF-295 CNS; > 22.7 µM in the assay with SK-OV-3 ovarian; 7.38 µM in the assay with MCF7 breast; > 50 µM in the assay on MOLT-4 leukemia; > 50 µM with SK-MEL-28 melanoma.
As for `COc1ccc(/C=N\NC(=O)Nc2cccc3ccccc23)cc1`, the TGI was > 100 µM in the assay with PC-3 prostate, > 100 µM with MCF7 breast, 34.5 µM in the assay with SNB-75 CNS and > 100 µM in the assay with SK-MEL-28 melanoma.
